This note sets out measurements from ChEMBL document CHEMBL1201862, “PubChem BioAssay data set” (2004).

Among the test systems are COLO 205; DLD-1; NCI-H23; HCT-15; UO-31; SK-MEL-5; KM12; MOLT-4; M14; NCI-H460; SW-620; A549; SR; SK-OV-3; SK-MEL-28; HCC 2998; SK-MEL-2.
Assay in all cases: DTP human tumour cell line panel, 48 h

Molecules are shown by their SMILES.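 Dose response: 5 concentrations. Exposure: 48 h. Format: 96-well plates. Endpoint: linear interpolation; highest concentration if not reached. GI50 marks 50% less growth.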 Calls of active or inactive are those of the source. No stated cut-off is given here; in the data, active = GI50 up to about 1.1 µM and inactive = higher.

As usually defined, the GI50 is the concentration giving 50% growth inhibition.

Regarding `O=c1[nH]c2cc([N+](=O)[O-])ccc2nc1/C(=N\NO)C(O)c1ccc([N+](=O)[O-])cc1` (stereo not given), the GI50 with COLO 205 was > 100 µM (inactive); in the experiment with DLD-1 it was > 100 µM (inactive); in the experiment with NCI-H23 it was > 100 µM (inactive); with HCT-15 it was 35.2 µM; with UO-31, > 100 µM (inactive); in the experiment on SK-MEL-5, > 100 µM (inactive). In addition, the GI50 was 65 µM (inactive) in the experiment on KM12; > 100 µM (inactive) with MOLT-4; > 100 µM (inactive) with M14; > 100 µM (inactive) in the experiment with NCI-H460; > 100 µM (inactive) in the experiment with SW-620; > 100 µM (inactive) in the experiment on A549. The GI50 in the experiment on SR, with SK-OV-3, in the experiment on SK-MEL-28 and in the experiment with HCC 2998 was > 100 µM (inactive) each time.

With `O=C1Nc2cc(F)ccc2C1=O`, the GI50 in the experiment with COLO 205 was 72.3 µM (inactive); in the experiment on DLD-1, > 100 µM (inactive); with NCI-H23, > 100 µM (inactive); with HCT-15, greater than 100 µM; with UO-31, > 100 µM (inactive); with SK-MEL-5 it was > 100 µM (inactive). Moreover, the GI50 is > 100 µM (inactive) in the experiment on SK-MEL-2; > 100 µM (inactive) in the experiment on KM12; > 100 µM (inactive) in the experiment with MOLT-4; > 100 µM (inactive) with M14; > 100 µM (inactive) in the experiment with NCI-H460; 73.3 µM (inactive) in the experiment with SW-620. Besides, the GI50 in the experiment on A549, in the experiment on SK-OV-3, in the experiment with SK-MEL-28 and with HCC 2998 was > 100 µM (inactive) throughout.

`CC(Nc1ccc(S(=O)(=O)NC(=N)N)cc1)c1c2ccccc2nc2ccccc12` (stereo not given): the GI50 in the experiment with COLO 205 is 57.7 µM (inactive); in the experiment with DLD-1, 18.1 µM (inactive); with NCI-H23, 22.5 µM (inactive); in the experiment with HCT-15, 29.2 µM; in the experiment with UO-31, 19 µM (inactive); with SK-MEL-2, 22.5 µM (inactive). Moreover, the GI50 with KM12 was 34.8 µM (inactive); in the experiment on MOLT-4, 14.6 µM (inactive); in the experiment on M14, 41 µM (inactive); with NCI-H460, 25.4 µM (inactive); with SW-620, 41.3 µM (inactive); with A549 it was 31.4 µM (inactive). For the same molecule, the GI50 in the experiment with SR was 14.2 µM (inactive); in the experiment with SK-OV-3, 26.4 µM (inactive); in the experiment with SK-MEL-28, 44.9 µM (inactive); in the experiment with HCC 2998 it was 27.5 µM (inactive).

As for `O=C(NC(Cc1ccc(Br)cc1)C(=O)O)c1ccc(I)cc1` (stereo not given), the GI50 was > 100 µM (inactive) with COLO 205; > 100 µM (inactive) in the experiment on DLD-1; > 100 µM (inactive) in the experiment on NCI-H23; greater than 100 µM with HCT-15; > 100 µM (inactive) with UO-31; > 100 µM (inactive) in the experiment with SK-MEL-5. Further, the GI50 with SK-MEL-2 is > 100 µM (inactive); in the experiment with KM12, > 100 µM (inactive); with MOLT-4, > 69.5 µM (inactive); with NCI-H460 it was > 100 µM (inactive); with SW-620, > 100 µM (inactive); in the experiment with A549, > 100 µM (inactive). In addition, the values for the GI50 in the experiment on SK-OV-3, with SK-MEL-28 and in the experiment with HCC 2998 were > 100 µM (inactive), > 100 µM (inactive) and > 47.4 µM (inactive), respectively.

For the molecule `Cc1ccc2oc(=O)cc(CC(=O)O)c2c1`, the GI50 was > 100 µM (inactive) with COLO 205; > 100 µM (inactive) with DLD-1; > 100 µM (inactive) with NCI-H23; greater than 100 µM in the experiment with HCT-15; > 100 µM (inactive) in the experiment with SK-MEL-5; > 100 µM (inactive) in the experiment on SK-MEL-2. In addition, the GI50 with KM12, with MOLT-4, in the experiment with M14, in the experiment on NCI-H460, in the experiment on SW-620 and with A549 was > 100 µM (inactive) each time. Moreover, the GI50 in the experiment on SK-OV-3, in the experiment with SK-MEL-28 and in the experiment with HCC 2998 was > 100 µM (inactive) in each case.

As to `C1=Cc2nc1c(-c1ccccc1)c1ccc([n-]1)c(-c1ccccc1)c1nc(c(-c3ccccc3)c3ccc([n-]3)c2-c2ccccc2)C=C1.[Zn+2]`, the GI50 is > 100 µM (inactive) with COLO 205; 70.1 µM (inactive) with DLD-1; > 100 µM (inactive) in the experiment with NCI-H23; greater than 100 µM in the experiment on HCT-15; > 100 µM (inactive) in the experiment on UO-31; > 100 µM (inactive) with SK-MEL-5. For the same molecule, the GI50 in the experiment on SK-MEL-2, with KM12, in the experiment on MOLT-4, in the experiment with M14, in the experiment on NCI-H460 and with SW-620 was > 100 µM (inactive) in each case. Also, the GI50 in the experiment on A549, with SK-OV-3, with SK-MEL-28 and in the experiment on HCC 2998 was > 100 µM (inactive) throughout.

Regarding `NC(=O)CCC(Nc1c2ccccc2[n+]([O-])c2ccccc12)C(=O)O` (stereo not given), the GI50 with COLO 205 was 49.1 µM (inactive); in the experiment on DLD-1 it was 27.8 µM (inactive); in the experiment on NCI-H23, 35.6 µM (inactive); in the experiment with HCT-15 it was 46.7 µM; in the experiment with UO-31, 58.3 µM (inactive); in the experiment on SK-MEL-5 it was 32 µM (inactive). For the same molecule, the GI50 is > 100 µM (inactive) in the experiment with SK-MEL-2; > 100 µM (inactive) in the experiment on KM12; 55.1 µM (inactive) with MOLT-4; > 100 µM (inactive) in the experiment with M14; 80 µM (inactive) in the experiment on NCI-H460; > 100 µM (inactive) in the experiment on SW-620. The GI50 in the experiment on A549 is > 100 µM (inactive); with SK-OV-3 it was > 100 µM (inactive); in the experiment with SK-MEL-28 it was 26.4 µM (inactive); with HCC 2998, > 100 µM (inactive).

As to `CC12CCC3(OCCO3)C(OC(=O)c3ccccc3)=C1CCC21OCCO1` (stereo not given), the GI50 in the experiment on COLO 205 is 63.1 µM (inactive); in the experiment with DLD-1, > 100 µM (inactive); in the experiment with HCT-15, greater than 100 µM; in the experiment with UO-31, > 100 µM (inactive); in the experiment on SK-MEL-5, > 100 µM (inactive); in the experiment on KM12 it was > 100 µM (inactive). The GI50 with MOLT-4, in the experiment with M14, with NCI-H460, with SW-620, in the experiment on A549 and in the experiment with SR was > 100 µM (inactive) throughout. Besides, the GI50 with SK-OV-3, in the experiment with SK-MEL-28 and in the experiment on HCC 2998 was > 100 µM (inactive) each time.

With `CCCCCCCCC1C(C)c2c([nH]c3ccccc23)C2C(=O)N(c3ccccc3)C(=O)C21` (stereo not given), the GI50 in the experiment on DLD-1 was 18.9 µM (inactive); in the experiment with NCI-H23, 3.73 µM (inactive); in the experiment with HCT-15, 11.2 µM; in the experiment with UO-31, 15.2 µM (inactive); in the experiment with SK-MEL-5 it was 16.3 µM (inactive); in the experiment on SK-MEL-2 it was 16 µM (inactive). Moreover, the GI50 is 3.71 µM (inactive) in the experiment with KM12; 2.27 µM (inactive) with MOLT-4; 14 µM (inactive) with M14; 3.82 µM (inactive) with NCI-H460; 14.8 µM (inactive) in the experiment on SW-620; 14 µM (inactive) in the experiment with A549. For the same molecule, the GI50 in the experiment on SK-OV-3 was 28.7 µM (inactive); with SK-MEL-28, 16.8 µM (inactive); with HCC 2998, 12.5 µM (inactive).
